± gives the expanded uncertainty stated by the source.
Assay: xn = mol fraction of the nth substance listed
Settings: Liquid, Vibrating tube method

## CN(C)C=O [dimethylformamide] + O=C=O
313.13 K, 8014 kPa, x2 = 0.6235
  mass density: 949.79 ± 0.41 kg/m3
313.13 K, 9041 kPa, x2 = 0.6235
  mass density: 952.04 ± 0.41 kg/m3
313.13 K, 10057 kPa, x2 = 0.6235
  mass density: 954.25 ± 0.41 kg/m3
313.13 K, 10998 kPa, x2 = 0.6235
  mass density: 956.28 ± 0.41 kg/m3
313.13 K, 11991 kPa, x2 = 0.6235
  mass density: 958.34 ± 0.41 kg/m3
313.13 K, 12985 kPa, x2 = 0.6235
  mass density: 960.34 ± 0.41 kg/m3
313.13 K, 14000 kPa, x2 = 0.6235
  mass density: 962.36 ± 0.41 kg/m3
313.13 K, 14996 kPa, x2 = 0.6235
  mass density: 964.28 ± 0.41 kg/m3
313.13 K, 16016 kPa, x2 = 0.6235
  mass density: 966.23 ± 0.41 kg/m3
313.13 K, 16993 kPa, x2 = 0.6235
  mass density: 968.02 ± 0.41 kg/m3
313.13 K, 18006 kPa, x2 = 0.6235
  mass density: 969.86 ± 0.41 kg/m3
313.13 K, 18988 kPa, x2 = 0.6235
  mass density: 971.7 ± 0.41 kg/m3
313.13 K, 20033 kPa, x2 = 0.6235
  mass density: 973.47 ± 0.41 kg/m3
313.13 K, 21061 kPa, x2 = 0.6235
  mass density: 975.25 ± 0.41 kg/m3
313.13 K, 22021 kPa, x2 = 0.6235
  mass density: 976.88 ± 0.41 kg/m3
313.13 K, 22996 kPa, x2 = 0.6235
  mass density: 978.52 ± 0.41 kg/m3
313.13 K, 24001 kPa, x2 = 0.6235
  mass density: 980.14 ± 0.41 kg/m3
313.13 K, 25034 kPa, x2 = 0.6235
  mass density: 981.79 ± 0.41 kg/m3
313.14 K, 9015 kPa, x2 = 0.8091
  mass density: 920.03 ± 0.42 kg/m3
313.14 K, 9992 kPa, x2 = 0.8091
  mass density: 923.92 ± 0.42 kg/m3
313.14 K, 10006 kPa, x2 = 0.9311
  mass density: 835.47 ± 0.47 kg/m3
313.14 K, 11003 kPa, x2 = 0.8091
  mass density: 927.79 ± 0.42 kg/m3
313.14 K, 11013 kPa, x2 = 0.9311
  mass density: 846.13 ± 0.47 kg/m3
313.14 K, 12022 kPa, x2 = 0.8091
  mass density: 931.54 ± 0.42 kg/m3
313.14 K, 12041 kPa, x2 = 0.9311
  mass density: 855.75 ± 0.46 kg/m3
313.14 K, 13011 kPa, x2 = 0.8091
  mass density: 934.99 ± 0.42 kg/m3
313.14 K, 13017 kPa, x2 = 0.9311
  mass density: 864.01 ± 0.45 kg/m3
313.14 K, 14003 kPa, x2 = 0.8091
  mass density: 938.37 ± 0.42 kg/m3
313.14 K, 14036 kPa, x2 = 0.9311
  mass density: 871.87 ± 0.45 kg/m3
313.14 K, 15006 kPa, x2 = 0.8091
  mass density: 941.63 ± 0.42 kg/m3
313.14 K, 15031 kPa, x2 = 0.9311
  mass density: 878.95 ± 0.44 kg/m3
313.14 K, 16000 kPa, x2 = 0.8091
  mass density: 944.75 ± 0.41 kg/m3
313.14 K, 16006 kPa, x2 = 0.9311
  mass density: 885.43 ± 0.44 kg/m3
313.14 K, 16988 kPa, x2 = 0.8091
  mass density: 947.8 ± 0.41 kg/m3
313.14 K, 17030 kPa, x2 = 0.9311
  mass density: 891.82 ± 0.44 kg/m3
313.14 K, 17988 kPa, x2 = 0.9311
  mass density: 897.48 ± 0.44 kg/m3
313.14 K, 18019 kPa, x2 = 0.8091
  mass density: 950.82 ± 0.41 kg/m3
313.14 K, 18996 kPa, x2 = 0.8091
  mass density: 953.63 ± 0.41 kg/m3
313.14 K, 19037 kPa, x2 = 0.9311
  mass density: 903.28 ± 0.43 kg/m3
313.14 K, 20022 kPa, x2 = 0.9311
  mass density: 908.47 ± 0.43 kg/m3
313.14 K, 20032 kPa, x2 = 0.8091
  mass density: 956.51 ± 0.41 kg/m3
313.14 K, 21000 kPa, x2 = 0.9311
  mass density: 913.41 ± 0.43 kg/m3
313.14 K, 21035 kPa, x2 = 0.8091
  mass density: 959.25 ± 0.41 kg/m3
313.14 K, 21995 kPa, x2 = 0.8091
  mass density: 961.81 ± 0.41 kg/m3
313.14 K, 22002 kPa, x2 = 0.9311
  mass density: 918.23 ± 0.43 kg/m3
313.14 K, 23016 kPa, x2 = 0.9311
  mass density: 922.92 ± 0.43 kg/m3
313.14 K, 23033 kPa, x2 = 0.8091
  mass density: 964.52 ± 0.41 kg/m3
313.14 K, 24006 kPa, x2 = 0.9311
  mass density: 927.35 ± 0.43 kg/m3
313.14 K, 24015 kPa, x2 = 0.8091
  mass density: 966.98 ± 0.41 kg/m3
313.14 K, 25006 kPa, x2 = 0.8091
  mass density: 969.42 ± 0.44 kg/m3
313.14 K, 25020 kPa, x2 = 0.9311
  mass density: 931.7 ± 0.43 kg/m3
313.15 K, 4032 kPa, x2 = 0.2876
  mass density: 948.43 ± 0.41 kg/m3
313.15 K, 5041 kPa, x2 = 0.2876
  mass density: 949.39 ± 0.41 kg/m3
313.15 K, 6004 kPa, x2 = 0.2876
  mass density: 950.24 ± 0.41 kg/m3
313.15 K, 6005 kPa, x2 = 0.4268
  mass density: 955.61 ± 0.41 kg/m3
313.15 K, 6022 kPa, x2 = 0.4461
  mass density: 956.18 ± 0.41 kg/m3
313.15 K, 6967 kPa, x2 = 0.2876
  mass density: 951.12 ± 0.41 kg/m3
313.15 K, 6991 kPa, x2 = 0.4461
  mass density: 957.31 ± 0.41 kg/m3
313.15 K, 7013 kPa, x2 = 0.4268
  mass density: 956.75 ± 0.41 kg/m3
313.15 K, 8002 kPa, x2 = 0.2876
  mass density: 952.05 ± 0.41 kg/m3
313.15 K, 8008 kPa, x2 = 0.4268
  mass density: 957.9 ± 0.41 kg/m3
313.15 K, 8024 kPa, x2 = 0.4461
  mass density: 958.53 ± 0.41 kg/m3
313.15 K, 9005 kPa, x2 = 0.2876
  mass density: 952.94 ± 0.41 kg/m3
313.15 K, 9006 kPa, x2 = 0.4461
  mass density: 959.66 ± 0.41 kg/m3
313.15 K, 9014 kPa, x2 = 0.4268
  mass density: 958.99 ± 0.41 kg/m3
313.15 K, 9998 kPa, x2 = 0.4461
  mass density: 960.8 ± 0.41 kg/m3
313.15 K, 10000 kPa, x2 = 0.2876
  mass density: 953.81 ± 0.41 kg/m3
313.15 K, 10006 kPa, x2 = 0.4268
  mass density: 960.05 ± 0.41 kg/m3
313.15 K, 10989 kPa, x2 = 0.4461
  mass density: 961.9 ± 0.41 kg/m3
313.15 K, 11017 kPa, x2 = 0.2876
  mass density: 954.68 ± 0.41 kg/m3
313.15 K, 11017 kPa, x2 = 0.4268
  mass density: 961.14 ± 0.41 kg/m3
313.15 K, 12006 kPa, x2 = 0.4268
  mass density: 962.22 ± 0.41 kg/m3
313.15 K, 12024 kPa, x2 = 0.2876
  mass density: 955.56 ± 0.41 kg/m3
313.15 K, 12025 kPa, x2 = 0.4461
  mass density: 963.02 ± 0.41 kg/m3
313.15 K, 13003 kPa, x2 = 0.4461
  mass density: 964.12 ± 0.41 kg/m3
313.15 K, 13004 kPa, x2 = 0.4268
  mass density: 963.25 ± 0.41 kg/m3
313.15 K, 13007 kPa, x2 = 0.2876
  mass density: 956.41 ± 0.41 kg/m3
313.15 K, 13997 kPa, x2 = 0.4268
  mass density: 964.28 ± 0.41 kg/m3
313.15 K, 13999 kPa, x2 = 0.4461
  mass density: 965.2 ± 0.41 kg/m3
313.15 K, 14004 kPa, x2 = 0.2876
  mass density: 957.26 ± 0.41 kg/m3
313.15 K, 14993 kPa, x2 = 0.4461
  mass density: 966.26 ± 0.41 kg/m3
313.15 K, 15003 kPa, x2 = 0.4268
  mass density: 965.36 ± 0.41 kg/m3
313.15 K, 15006 kPa, x2 = 0.2876
  mass density: 958.1 ± 0.41 kg/m3
